This assay concerns cytokinetic ring. Put plainly: Cytokinetic ring closure of fission yeast in egg-cup wells, observed by fluorescence microscopy (rlc1-mCherry). In kind it is cell-based, Schizosaccharomyces pombe. Particulars: latrunculin A 2 μM; FIG. 5B.

Entries after “also recorded” stand apart in the source; their conditions may differ.

Method: Here, they illustrate results with the myosin light chain encoded by rcl1 gene fused to mCherry.
The inventors incubated the cells with latrunculin A (2 μM), a drug known to bind monomeric actin and therefore preventing its polymerisation (Ayscough, 1998).
Standard methods were used for cell growth (Moreno et al., 1991). Briefly, cells were growing exponentially in EMM4S (Moreno et al., 1991), and experiments were conducted using the same medium in the chamber.
S. pombe strains successfully used in this study were the following: • JM 207 h+ rlc1 mcherry::natR ura- leu- ade-, J. Moseley • JW 1110 h+ kanMX6-Pmyo2-mYFP-myo2 ade6-M210 leu1-32 ura4-D18, J.-Q. Wu (Wu and Pollard, 2005) • PPG 5054, h+ leu1-32 ura4-D18 pax::KanMX6 leu1+::GFPpax+, Pilar Perez Lab (Pinar et al., 2008). • JW 977 h+ cdc15-mYFP-kanMX6 ade6-M210 leu1-32 ura4-D18, J.-Q. Wu (Wu and Pollard, 2005) • 519 h− bgs1Δ::ura4^+ Pbgs1^+::GFP-bgs1^+:leu1^+ leu1-32 ura4-Δ18 his3-Δ1, Pilar Perez (Cortes et al., 2002)
Cells were grown in exponential phase at 32° C. At about 0.5 optical density, the EMM4S medium was removed twice by centrifugation at 1000 g for 2 min followed by cells resuspension in a EMM-N medium (Moreno et al., 1991): cells were nitrogen starved at 32° C. for 5 hours. Cells were then pelleted with a 2 min centrifugation at 1000 g and they were resuspended in EMM4S. The egg cup surface (face up) was carefully placed on the top of a home-made plastic holder deposited in a 50 ml tube (adapted from the set-up used by (Allen et al., 2007)); 13 ml of EMM4S was poured in the tube. Cells were exposed to sonication 30 s (Branson 200, Ultrasonic Cleaner) to separate aggregated cells, and 1 ml of cell suspension was added to the 50 ml tube. Cells were then centrifuged at 500 g for 2 mn on the egg-cup surface resting on the special plastic holder. The egg cup surface was carefully removed from the holder and it was inserted in a home-made chamber (see FIG. 2D). The sample preparation was achieved by screwing a top metal piece onto the surface holder. […]

Consider `C/C1=C/C(=O)O[C@@H]2C[C@@H](CC[C@H](C)/C=C\C=C\CC1)O[C@@](O)([C@@H]1CSC(=O)N1)C2` [latrunculin A], for which the “closure of the cytokinetic ring” value was “the closure was stopped”; the cytokinetic ring integrity result is “the ring disassembled, and this led to the clustering of myosin into discrete patches; also recorded: disrupts the ring”.

For the origin of these results see US9304125B2, “Devices and methods for observing the cell division” (CENTRE NATIONAL DE LA RECHERCHE SCIENTIFIQUE, priority 2009, dated 2016).
